Laboratory results published in patent US20080160108A1, “Method of treating muscular dystrophies with an inhibitor of histone deacetylase” (Centre National de la Recherche Scientifique- CNRS, a …, priority 2002, published 2008).

Tests used:
utrophin [1] = assay: Utrophin in muscle of mdx mice injected i.p., immunofluorescence and Western blot; type: in vivo, mouse; details: 200 mg/kg/day i.p. daily for 6 weeks
Description: Mdx mice were injected daily i.p. and for 6 weeks with 200 mg/kg/day either with butyrate or with L-arginine or with physiological serum. It is observed that the utrophin is poorly expressed in the muscle of the mdx mice injected with physiological serum used as control. […] It should be noted that the augmentation of utrophin is greater in the case of the mice injected with butyrate. The augmentation of the utrophin was quantified in Western blot.

utrophin [2] = assay: Utrophin expression in myotubes of mdx mice, Western blot; type: cell-based, mouse; details: myotubes of dystrophic mdx mice (line xlt), 5 mM, 48 h
Description: Myotubes of dystrophic mdx mice (line xlt) are treated with 5 mM of butyrate for 48 h. The augmentation of utrophin is then quantified in Western blot.

utrophin [3] = assay: Utrophin in muscle of healthy OF1 mice injected i.p.; type: in vivo, mouse
Description: OF1 mice were injected daily with i.p. and for 6 weeks with 100, 200 or 300 mg/kg/day either with arginine butyrate or with physiological serum. No utrophin was observed on the membrane in the muscle of the mice injected with the physiological serum used as control (“non-treated”). […] This augmentation is dosage-dependent. The induction of utrophin under the muscular membrane is significant probably on account of an additive effect of the arginine via the NO and of the butyrate via the activation of the transcription of the utrophin gene.

Molecule: N=C(N)NCCC[C@H](N)C(=O)O [L-arginine]
- utrophin localisation in muscle (utrophin [1]; vs physiological serum control): the utrophin appears under the muscular membrane

Molecule: CCCC(=O)O [butyrate]
- augmentation of expression of utrophin (factor, intensity of Western blot bands) (utrophin [1]): 2
- augmentation of expression of utrophin (factor, intensity of Western blot bands) (utrophin [2]): 2

Molecule: arginine butyrate
- dose dependence of the augmentation of utrophin (utrophin [3]; OF1 mice, 100, 200 or 300 mg/kg/day i.p. daily for 6 weeks): dosage-dependent
- utrophin localisation in muscle (utrophin [3]; OF1 mice, 100, 200 or 300 mg/kg/day i.p. daily for 6 weeks, vs physiological serum control): utrophin appears very clearly under the muscular membrane
- quantity of utrophin (utrophin [3]; healthy muscles and mdx mouse (FIG. 4), summary statement): significantly augments the quantity of utrophin
